One series deals with Caco-2 cells. The series can be described thus: Caco2 assay (Papp A-B). The class given is in vitro ADME. The following applies: test compound 50 μM, 120 min, 37° C. As to the method:
Caco-2 cells are grown at 37° C. in an atmosphere of 5% CO2 in DMEM growth medium supplemented with 10% (v/v) fetal bovine serum, 1% (v/v) nonessential amino acids, penicillin (100 U/mL), and streptomycin (100 μg/mL). Confluent cell monolayers are subcultured every 7 days or 4 days for Caco-2 by treatment with 0.05% trypsin containing […]. Caco-2 cells are seeded in 96-well Transwell plates. The seeding density for Caco-2 cells is 14,000 cells/well. DMEM growth medium is replaced every other day after seeding. Cell monolayers are used for transport assays between 22 and 25 days for Caco-2 cells.
Cell culture medium is removed and replaced with HBSS. To measure the TEER, the HBSS is added into the donor compartment (apical side) and receiver compartment (basolateral side). The TEER is measured by using a REMS Autosampler to ensure the integrity of the cell monolayers. Caco-2 cell monolayers with TEER values 300 Ω·cm^2 are used for transport experiments. To determine the Papp in the absorptive direction (A-B), solution of test compound (50 μM) in HBSS is added to the donor compartment (apical side), while HBSS solution with 4% BSA is added to the receiver compartment (basolateral side). The apical volume was 0.075 mL, and the basolateral volume is 0.25 mL. The incubation period is 120 min. at 37° C. in an atmosphere of 5% CO2. At the end of the incubation period, samples from the donor and receiver sides are removed and an equal volume of MeCN is added for protein precipitation. The supernatants are collected after centrifugation (3000 rpm, Allegra X-14R Centrifuge from Beckman Coulter, Indianapolis, IN) for LCMS analysis. The permeability value is determined according to the equation:
[formula] • where the flux rate (F, mass/time) is calculated from the slope of cumulative amounts of compound of interest on the receiver side, SA is the surface area of the cell membrane, VD is the donor volume, and MD is the initial amount of the solution in the donor chamber.
The symbol “+” indicates a Caco-2 value of ≤0.5, “++” indicates a Caco-2 value of >0.5 but ≤1; and “+++” indicates a Caco-2 value of >1. “NA” indicates IC50 not available.

Another series has as its target KRAS G12V (Homo sapiens, UniProt P01116, G12V). In words: GDP-GTP exchange assay (bodipy-GDP/GppNHp, SOS1), KRAS G12V. The class given is biochemical.
The next series concerns the target KRAS G12D (Homo sapiens, UniProt P01116, G12D). The series can be described thus: GDP-GTP exchange assay (bodipy-GDP/GppNHp, SOS1), KRAS G12D. The format is biochemical.
[1] abbreviates: Table H, column G12V, for compounds isolated as several atropisomers/diastereoisomers the value for the most potent isomer is quoted, read-out: KRAS G12V exchange assay IC50.
Where [2] appears, read: Table H, column G12D, for compounds isolated as several atropisomers/diastereoisomers the value for the most potent isomer is quoted, read-out: KRAS G12D exchange assay IC50.

What is called IC50 is the concentration at which inhibition is half-maximal.

Like-named read-outs stand apart in the source and are kept apart here. Bounds are passed on as bounds.

KRAS G12V, sequence (P01116 1-188 isoform P01116-2 G12V): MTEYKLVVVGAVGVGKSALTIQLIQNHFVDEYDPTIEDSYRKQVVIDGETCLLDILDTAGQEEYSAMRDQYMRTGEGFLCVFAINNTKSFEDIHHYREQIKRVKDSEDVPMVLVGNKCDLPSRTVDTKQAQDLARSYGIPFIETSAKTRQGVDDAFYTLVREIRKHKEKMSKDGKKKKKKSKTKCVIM
KRAS G12D, sequence (P01116 1-188 isoform P01116-2 G12D): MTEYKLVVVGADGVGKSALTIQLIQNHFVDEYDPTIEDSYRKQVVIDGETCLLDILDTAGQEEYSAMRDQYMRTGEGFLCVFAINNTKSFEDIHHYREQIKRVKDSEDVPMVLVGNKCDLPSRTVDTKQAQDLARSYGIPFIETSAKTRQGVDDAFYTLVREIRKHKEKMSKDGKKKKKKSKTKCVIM

As to `Cc1nc2c(F)c(-c3cccc(Cl)c3Cl)c(CCC#N)cc2c2c1cc([C@H]1C[C@H](OCc3noc4ccccc34)CN1C(=O)C1CC1)n2[C@H]1[C@H]2CN[C@@H]1C2` [Example 6], the Caco-2 result in the series with Caco-2 cells is given as “+ (a Caco-2 value of ≤0.5)”. In addition, the IC50 on KRAS G12V (setting [1]) and at KRAS G12D (setting [2]) was at most 100 nM in each case.
Take `[2H]C([2H])([2H])O[C@H]1CC[C@@H]1O[C@H]1C[C@H](c2cc3c(C)nc4c(F)c(-c5cccc(Cl)c5Cl)c(CCC#N)cc4c3n2[C@H]2[C@H]3CN[C@@H]2C3)N(C(=O)C2CC2)C1` (stereo in doubt) [Example 80, trans-3-(1-((1R,4R,5S)-2-Azabicyclo[2.1.1]hexan-5-yl)-2-((2R,4S)-1-(cyclopropanecarbonyl)-4-(2-(methoxy-d3)cyclobutoxy)pyrrolidin-2-yl)-7-(2,3-dichlorophenyl)-6-fluoro-4-methyl-1H-pyrrolo[3,2-c]quinolin-8-yl)propanenitrile]: the Caco-2 entry in the series on Caco-2 cells is given as “++ (a Caco-2 value of >0.5 but ≤1)”. Moreover, the IC50 on KRAS G12V (setting [1]) and at KRAS G12D (setting [2]) was at most 100 nM throughout.
Consider `Cc1nc2c(F)c(-c3cccc(Cl)c3Cl)c(CCC#N)cc2c2c1cc([C@H]1C[C@H](OCc3cc(C(F)(F)F)sn3)CN1C(=O)C1CC1)n2[C@H]1[C@H]2CN[C@@H]1C2` [Example 11], for which, in the series with Caco-2 cells, the Caco-2 result is reported as “+ (a Caco-2 value of ≤0.5)”. In addition, the IC50 at KRAS G12V (setting [1]) and on KRAS G12D (setting [2]) was at most 100 nM in each case.
As for `Cc1nc2c(F)c(-c3cccc(Cl)c3Cl)c(CCC#N)cc2c2c1cc([C@H]1C[C@H](Oc3cnn(C)c3C(F)F)CN1C(=O)C1CC1)n2[C@H]1[C@H]2CN[C@@H]1C2` [Example 47, 3-(1-((1R,4R,5S)-2-Azabicyclo[2.1.1]hexan-5-yl)-2-((2R,4S)-1-(cyclopropanecarbonyl)-4-((5-(difluoromethyl)-1-methyl-1H-pyrazol-4-yl)oxy)pyrrolidin-2-yl)-7-(2,3-dichlorophenyl)-6-fluoro-4-methyl-1H-pyrrolo[3,2-c]quinolin-8-yl)propanenitrile], in the series with Caco-2 cells, the Caco-2 result is “+ (a Caco-2 value of ≤0.5)”. Moreover, the IC50 on KRAS G12V (setting [1]) and on KRAS G12D (setting [2]) was at most 100 nM throughout.
As for `Cc1nc2c(F)c(-c3cccc(Cl)c3Cl)c(CCC#N)cc2c2c1cc([C@H]1C[C@H](Oc3cccc(C#N)c3)CN1C(=O)C1CC1)n2[C@H]1[C@H]2CN[C@@H]1C2` [Example 45, 3-(((3S,5R)-5-(1-((1R,4R,5S)-2-Azabicyclo[2.1.1]hexan-5-yl)-8-(2-cyanoethyl)-7-(2,3-dichlorophenyl)-6-fluoro-4-methyl-1H-pyrrolo[3,2-c]quinolin-2-yl)-1-(cyclopropanecarbonyl)pyrrolidin-3-yl)oxy)benzonitrile], the Caco-2 result in the series with Caco-2 cells is recorded as “+ (a Caco-2 value of ≤0.5)”. The IC50 at KRAS G12V (setting [1]) and at KRAS G12D (setting [2]) was at most 100 nM in each case.
With `Cc1nc2c(F)c(-c3cccc(Cl)c3Cl)c(CCC#N)cc2c2c1cc([C@H]1C[C@H](n3nnc(N4CCCC4)n3)CN1C(=O)C1CC1)n2[C@H]1[C@H]2CN[C@@H]1C2` [Example 75, 3-(1-((1R,4R,5S)-2-Azabicyclo[2.1.1]hexan-5-yl)-2-((2R,4S)-1-(cyclopropanecarbonyl)-4-(5-(pyrrolidin-1-yl)-2H-tetrazol-2-yl)pyrrolidin-2-yl)-7-(2,3-dichlorophenyl)-6-fluoro-4-methyl-1H-pyrrolo[3,2-c]quinolin-8-yl)propanenitrile], the Caco-2 entry with Caco-2 cells is given as “+ (a Caco-2 value of ≤0.5)”. In addition, the IC50 on KRAS G12V (setting [1]) and at KRAS G12D (setting [2]) was at most 100 nM throughout.
As to `Cc1nc2c(F)c(-c3cccc(Cl)c3Cl)c(CCC#N)cc2c2c1cc([C@H]1C[C@H](OC3(C)CCC3)CN1C(=O)C1CC1)n2[C@H]1[C@H]2CN[C@@H]1C2` [Example 78, 3-(1-((1R,4R,5S)-2-Azabicyclo[2.1.1]hexan-5-yl)-2-((2R,4S)-1-(cyclopropanecarbonyl)-4-(1-methylcyclobutoxy)pyrrolidin-2-yl)-7-(2,3-dichlorophenyl)-6-fluoro-4-methyl-1H-pyrrolo[3,2-c]quinolin-8-yl)propanenitrile], the Caco-2 entry in the series on Caco-2 cells is reported as “+++ (a Caco-2 value of >1)”. Also, the IC50 on KRAS G12V (setting [1]) and on KRAS G12D (setting [2]) was at most 100 nM throughout.
In the case of `Cc1nc2c(F)c(-c3cccc(Cl)c3Cl)c(CCC#N)cc2c2c1cc([C@H]1C[C@H](OCc3cccc(C(F)(F)F)n3)CN1C(=O)C1CC1)n2[C@H]1[C@H]2CN[C@@H]1C2` [Example 10], the Caco-2 entry in the series on Caco-2 cells was “++ (a Caco-2 value of >0.5 but ≤1)”. In addition, the IC50 on KRAS G12V (setting [1]) and at KRAS G12D (setting [2]) was at most 100 nM throughout.
On to `Cc1cc(CO[C@H]2C[C@H](c3cc4c(C)nc5c(F)c(-c6cccc(Cl)c6Cl)c(CCC#N)cc5c4n3[C@H]3[C@H]4CN[C@@H]3C4)N(C(=O)C3CC3)C2)ns1` [Example 15], for which the Caco-2 result in the series with Caco-2 cells is listed as “+++ (a Caco-2 value of >1)”. In addition, the IC50 at KRAS G12V (setting [1]) and at KRAS G12D (setting [2]) was at most 100 nM in each case.
Turning to `Cc1cc(CO[C@H]2C[C@H](c3cc4c(C)nc5c(F)c(-c6cccc(Cl)c6Cl)c(CCC#N)cc5c4n3[C@H]3[C@H]4CN[C@@H]3C4)N(C(=O)C3CC3)[C@@H]2C)ns1` [Example 3], the Caco-2 result with Caco-2 cells is “++ (a Caco-2 value of >0.5 but ≤1)”. Moreover, the IC50 at KRAS G12V (setting [1]) and on KRAS G12D (setting [2]) was at most 100 nM each time.
Consider `Cc1nc2c(F)c(-c3cccc(Cl)c3Cl)c(CCC#N)cc2c2c1cc([C@H]1C[C@H](n3cc(F)cn3)CN1C(=O)C1CC1)n2[C@H]1[C@H]2CN[C@@H]1C2` [Example 72, 3-(1-((1R,4R,5S)-2-Azabicyclo[2.1.1]hexan-5-yl)-2-((2R,4S)-1-(cyclopropanecarbonyl)-4-(4-fluoro-1H-pyrazol-1-yl)pyrrolidin-2-yl)-7-(2,3-dichlorophenyl)-6-fluoro-4-methyl-1H-pyrrolo[3,2-c]quinolin-8-yl)propanenitrile], for which the Caco-2 entry with Caco-2 cells is on record as “++ (a Caco-2 value of >0.5 but ≤1)”. Further, the IC50 on KRAS G12V (setting [1]) and at KRAS G12D (setting [2]) was at most 100 nM throughout.
In the case of `CC[C@@H]1[C@@H](Oc2cc(OC)ncc2F)C[C@H](c2cc3c([C@@H](C)O)nc4c(F)c(-c5cccc(Cl)c5Cl)c(CCC#N)cc4c3n2[C@H]2[C@H]3CN[C@@H]2C3)N1C(=O)C1CC1` [Example 82, 3-(1-((1R,4R,5S)-2-Azabicyclo[2.1.1]hexan-5-yl)-2-((2R,4S,5R)-1-(cyclopropanecarbonyl)-5-ethyl-4-((5-fluoro-2-methoxypyridin-4-yl)oxy)pyrrolidin-2-yl)-7-(2,3-dichlorophenyl)-6-fluoro-4-((R)-1-hydroxyethyl)-1H-pyrrolo[3,2-c]quinolin-8-yl)propanenitrile], in the series on Caco-2 cells, the Caco-2 entry is listed as “+++ (a Caco-2 value of >1)”. In addition, the IC50 on KRAS G12V (KRAS G12V mutant, value for the most potent isomer quoted for certain compounds, read-out: G12V (KRAS G12V exchange assay IC50)) was at most 100 nM; at KRAS G12D (bodipy-loaded KRAS G12D 2.5 nM, 4 h pre-incubation, value for the most potent isomer quoted for certain compounds, read-out: G12D (KRAS G12D exchange assay IC50)), at most 100 nM.
Consider `Cc1nc2c(F)c(-c3cccc(Cl)c3Cl)c(CCC#N)cc2c2c1cc([C@H]1C[C@H](OC3CCC(C#N)C3)CN1C(=O)C1CC1)n2[C@H]1[C@H]2CN[C@@H]1C2` (stereo partly drawn) [Example 24], for which, in the series with Caco-2 cells, the Caco-2 entry is reported as “+ (a Caco-2 value of ≤0.5)”. Further, the IC50 at KRAS G12V (setting [1]) and on KRAS G12D (setting [2]) was at most 100 nM throughout.
With `Cc1nc2c(F)c(-c3cccc(Cl)c3Cl)c(CCC#N)cc2c2c1cc([C@H]1C[C@H](OC(C)c3ccon3)CN1C(=O)C1CC1)n2[C@H]1[C@H]2CN[C@@H]1C2` (stereo partly drawn) [Example 32], the Caco-2 result in the series with Caco-2 cells was “+ (a Caco-2 value of ≤0.5)”. For the same compound, the IC50 at KRAS G12V (setting [1]) and on KRAS G12D (setting [2]) was at most 100 nM in each case.
For `Cc1nc2c(F)c(-c3cccc(Cl)c3Cl)c(CCC#N)cc2c2c1cc([C@H]1C[C@H](Oc3cc(F)ccn3)CN1C(=O)C1CC1)n2[C@H]1[C@H]2CN[C@@H]1C2` [Example 56, 3-(1-((1R,4R,5S)-2-Azabicyclo[2.1.1]hexan-5-yl)-2-((2R,4S)-1-(cyclopropanecarbonyl)-4-((4-fluoropyridin-2-yl)oxy)pyrrolidin-2-yl)-7-(2,3-dichlorophenyl)-6-fluoro-4-methyl-1H-pyrrolo[3,2-c]quinolin-8-yl)propanenitrile], the Caco-2 result in the series on Caco-2 cells was “+++ (a Caco-2 value of >1)”. Further, the IC50 on KRAS G12V (setting [1]) and on KRAS G12D (setting [2]) was at most 100 nM each time.

For the origin of these results see patent US20240390340A1 (INCYTE CORPORATION, priority 2023, published 2024).
